# Values of other authors, collected in patent US20130237476A1, “ADIPOSE TISSUE TARGETED PEPTIDES” (ABLARIS THERAPEUTICS INC., priority 2012, published 2013).
# Where no end group is shown, it is not given here. [ ]: non-standard residue; d: D form. Ex = not defined here
# How the values were obtained:
# [1] = diastereomeric peptide with 5th and 9th residues as L-analogs; comparator not stated
# [2] = system: visceral adipose tissue (white fat)
# [3] = system: prohibitin; details: Kolonin et al., Nat Med 2004; prohibitin expressed in adipose tissue
substance,measurement,setting,value
"D,L-(KExAKExAK)2 (K[Ex]AK[Ex]AKK[Ex]AK[Ex]AK; reading uncertain; also: D/L diastereomeric residues, positions not given here) [diasteriomeric peptide in which the 5th and 9th residues were replaced with L-analogs to disrupt alpha helicity]",hemolytic activity,[1],greatly reduced
"CKGGRAKDC-GG-D(KLAKLAKKLAKLAK) (CKGGRAKDCGG[dK][dL][dA][dK][dL][dA][dK][dK][dL][dA][dK][dL][dA][dK]; cysteine pairing not given here) [ABL-1, targeting peptide operably linked to an apoptotic therapeutic peptide]",obesity reversal,"[2]; animal models, after resorption of established white fat",rapid obesity reversal
same,ablation of visceral adipose tissue,[2]; targets prohibitin in adipose vascular endothelial cells,cause ablation of visceral adipose tissue
CKGGRAKDC [adipose targeting peptide],association with prohibitin,[3],associates with prohibitin
